Assays:
[1] = system: erythropoietin; experiment: Dose response in vivo: serum erythropoietin (Example 3); set-up: species or system Sprague Dawley male rats; settings: rats; oral gavage 350 mg/kg on two days or 100 mg/kg daily days 1 to 7; within 1 day of treatment; FIG. 4A
Description: Twelve Sprague Dawley male rats (approx. 260 g) were obtained from Charles River Laboratories, Inc., and treated by oral gavage as follows: (1) Four rats were dosed daily for days 1 to 7 with 0.5% carboxymethyl cellulose (CMC; Sigma-Aldrich, St. Louis Mo.) (0 mg/kg), were not treated for days 8 to 14, and then were dosed daily for days 15 to 19 with 0.5% CMC (0 mg/kg); (2) four animals were treated on day 0 and day 3 with a total of 7 ml/kg/day of 5.0% compound C (50 mg/ml in 0.5% CMC) (350 mg/kg), were not treated days 8 to 14, and then were dosed daily for days 15 to 19 with 3% compound C: (30 mg/ml in 0.5% CMC) (60 mg/kg/day); and (3) four animals were treated daily for days 1 to 7 with a total volume of 4 ml/kg/day of 2.5% compound C (25 mg/ml in 0.5% CMC) (100 mg/kg), were not treated days 8 to 14, and then were dosed daily for days 15 to 19 with 3% compound C (60 mg/kg/day). Thus, groups (2) and (3) received a total of 700 mg compound/kg body weight over the first 7 days, no treatment from days 8 to 14, and then 60 mg/kg/day for another 5 days. Animals were monitored for change in body weight and signs of toxicity. Blood samples (2×0.5 ml) were collected on days 1, 3, 7, 10, 17 and 21 as follows. Animals were anesthetized with isoflurane and 0.5 ml of blood was collected from the tail vein of each animal into each of two MICROTAINER EDTA-2K tubes (Becton-Dickinson). […]

[2] = system: erythropoietin transcript; experiment: Erythropoietin transcript in tissues by Murine genome U74AV2 array (Example 7); format: in vivo, male Swiss Webster mice; settings: mice
Description: Twenty-five male Swiss Webster mice (35-38 g) were obtained from Simonson, Inc., and treated by oral gavage […] for 2.5 days (5 doses) with a 4 ml/kg volume of either 0.5% carboxymethyl cellulose (CMC; Sigma-Aldrich, St. Louis Mo.) (0 mg/kg/day), compound C at 30 or 100 mg/kg/day […], or blood was collected daily from animals as described above to induce anemia. Blood samples were collected and kidney, liver, brain, lung, heart, and skeletal muscle tissues were harvested and processed as for Example 2, Experiment I (supra).
RNA isolation was carried out using the following protocol. A 50 mg section of each organ was diced, 875 μl of RLT buffer (RNEASY kit; Qiagen Inc., Valencia Calif.) was added, and the pieces were homogenized for about 20 seconds using a rotor-stator POLYTRON homogenizer (Kinernatica, Inc., Cincinnati Ohio). The homogenate was micro-centrifuged for 3 minutes to pellet insoluble material, the supernatant was transferred to a new tube and RNA was isolated using an RNEASY kit (Qiagen) according to the manufacturer's instructions. The RNA was eluted into 80 μL of water and quantitated with RIBOGREEN reagent (Molecular Probes, Eugene Oreg.). Genomic DNA was then removed from the RNA using a DNA-FREE kit (Ambion Inc, Austin Tex.) according to the manufacturer's instructions. The absorbance at 260 and 280 nm was measured to determine RNA purity and concentration.
RNA was precipitated in 0.3 M sodium acetate (pH 5.2), 50 ng/ml glycogen, and 2.5 volumes of ethanol for one hour at −20° C. Samples were centrifuged and pellets were washed with cold 80% ethanol, dried, and resuspend in water. Double stranded cDNA was synthesized using a T7-(dT)24 first strand primer (Affymetrix, Inc., Santa. Clara Calif.) and the […] CHOICE system (Invitrogen) according to the manufacturer's instructions. The final cDNA was extracted with an equal volume of 25:24:1 phenol:chloroform:isoamyl alcohol using a PHASE LOCK GEL insert (Brinkman, Inc., Westbury N.Y.). The aqueous phase was collected and cDNA was precipitated using 0.5 volumes of 7.5 M ammonium acetate and 2.5 volumes of ethanol. Alternatively, cDNA was purified using the […] sample cleanup module (Affymetrix) according to the manufacturer's instructions. […]
Hybridization cocktail was prepared by bringing 5 μg probe to 100 μl in 1× hybridization buffer (100 mM MES, 1 M [Na^+], 20 mM EDTA, 0.01% Tween 20), 100 μg/ml herring sperm DNA, 500 μg/ml acetylated BSA, 0.03 nM control oligo B2 (Affymetrix), and 1× […] eukaryotic hybridization control (Affymetrix). […] Arrays were analyzed using a […] scanner (Affymetrix) and Microarray Suite software (Affymetrix). […]

[3] = system: erythropoietin; experiment: Erythropoietin production following bilateral nephrectomy: serum erythropoietin (Example 8); format: in vivo; settings: rats, 100 or 150 mg/kg oral gavage at 2 and 20 hours post-surgery, blood at 24 hours, FIG. 7
Description: The ability of a compound of the invention to induce endogenous erythropoietin production in the absence of functioning kidney was assayed using a procedure described by Jacobson et al, (1957, Nature 179:633-634.) Briefly, rats were anesthetized under isoflurane and a midline abdominal incision was made under sterile conditions. The kidney capsules were peeled off, the pedicles were ligated, and both kidneys were removed. The abdomen was then closed and the animal was allowed to recover.
Animals were treated by oral gavage at 2 and 20 hours post-surgery with either 0.5% carboxymethyl cellulose (CMC; Sigma-Aldrich, St. Louis Mo.) or with compound C at 100 or 150 mg/kg. Blood samples (0.6 ml) were collected at 24 hours as follows. Animals were anesthetized with isoflurane and blood was collected from the tail vein into a MICROTAINER EDTA-2K tube (Becton-Dickinson). Blood samples were processed for erythropoietin levels and hematocrit as described in Example 2. Complete Blood Count (CBC) analysis, including blood hemoglobin level, reticulocyte number, and hematocrit, was performed by IDEXX veterinary service (W. Sacramento, Calif.).

[4] = 30 or 100 mg/kg/day oral gavage for 4 days, FIG. 6

Compound: O=C(O)CNC(=O)c1nc(Cl)c2ccccc2c1O [Compound C, [(1-chloro-4-hydroxy-isoquinoline-3-carbonyl)-amino]-acetic acid]
- serum erythropoietin level [1]: significantly increased
- erythropoietin transcript, brain [2, 4]: dose-dependent increase
- erythropoietin transcript, kidney [2, 4]: dose-dependent increase
- erythropoietin transcript, liver [2, 4]: dose-dependent increase
- level of expression versus transcription seen with bleed-induced anemia in the same tissue ([2]; brain, kidney, liver, 30 or 100 mg/kg/day oral gavage): equivalent to or exceeded
- serum erythropoietin levels, sham-operated animals [3]: significantly increased
- serum erythropoietin levels, bilaterally nephrectomized animals ([3]; relative to untreated BN and sham controls): noticably increased

From US20130203805A1, “Methods for treating anemia using inhibitors of hypoxia-inducible factor (HIF) hydroxylase” (FIBROGEN, INC., priority 2001, published 2013)
